The experiment concerns GUTat 3.1 strain of the bloodstream form of T. brucei brucei. Kind of experiment: alamarBlue in vitro viability test for trypanosome parasites. Type of experiment: cell-based. As to conditions: Trypanosoma brucei, 48 h of incubation, read-out: IC50, antitrypanosomal activity. As for the experimental part: The GUTat 3.1 strain of the bloodstream form of T. brucei brucei parasites was used in this study. Parasites were cultured in vitro according to the conditions established previously ([36]). Parasites were used when they reached a confluent concentration of 1 × 10^6 parasites/ml. Estimation of parasitemia was done with the Neubauer counting chamber. Parasites were diluted to a concentration of 3 × 10^5 parasites/ml with HM1-9 medium and were used for the various experiments.
The alamarBlue assay (Life Technologies, USA) was carried out on treated or untreated trypanosome parasites to ascertain their viability. The assay was performed in a 96-well plate following the manufacturer's instructions with modification. Briefly, 1.5 × 10^4 parasites were seeded with varied concentrations of plant material (extracts, fractions, or compounds) ranging from 0.78 μg/ml to […]. Final concentrations of EtOH and dimethyl sulfoxide (DMSO) were kept at <1% and 0.1%, respectively. After incubation of parasites with or without plant extracts or compounds for 24 h at 37°C in 5% CO2, 10% alamarBlue dye was added, and the parasites were incubated another 24 h in darkness. After a total of 48 h, the plate was read for absorbance at 540 nm using the Tecan Sunrise Wako spectrophotometer. The trend curve was drawn to obtain a 50% inhibitory concentration (IC50) of each plant material (extracts, fractions, and compounds).
Background: The colour change of resazurin is a common sign of viable cells or microbes.
In general, IC50 refers to the point on the concentration scale where inhibition reaches its midpoint. As for `CC1(C)CC[C@]2(C(=O)O)CC[C@]3(C)C(=CC[C@@H]4[C@@]5(C)CC[C@H](O)C(C)(C)[C@@H]5CC[C@]43C)[C@@H]2C1` [oleanolic acid], the IC50 turned out to be 13.7 µM. As for `COc1c2cc(C=O)ccc2c(OC)c2c(O)cccc12` [oruwalol], the figure is 518 µM. On to `C[C@H]1[C@H](C)CC[C@]2(C(=O)O)CC[C@]3(C)C(=CC[C@@H]4[C@@]5(C)CC[C@H](O)C(C)(C)[C@@H]5CC[C@]43C)[C@H]12` [ursolic acid], for which the IC50 was 15.4 µM.

The record behind these values is PMC4879371, “Antitrypanosomal Activities and Mechanisms of Action of Novel Tetracyclic Iridoids from Morinda lucida Benth” (Antimicrobial Agents and Chemotherapy, 2016).
